The values that follow come from patent US11820759B2, “Modulators of chemokine receptors” (CHEMOCENTRYX, INC., priority 2015, dated 2023).

In the experiment the test system is IL-23 induced ear swelling. Description: IL-23 induced ear swelling model for psoriasis. The format is in vivo. The conditions noted are these: C57B1/6 mice; sub-cutaneous, therapeutic dosing after 3 intradermal injections of IL-23; calipers; FIG. 2. On the procedure:
An intradermal injection of IL-23 into the ear of mice can cause a swelling of the ear which is CCR6 dependent (Hedrick M. N et. al. J. Clinical Investigation. 2009. 119:2317-2329). C57B1/6 mice were given intradermal injections of IL-23 in the right ear. PBS was given by intradermal injection into the left ear as a control. Compound 1.023 (synthesized in example 6) was dosed by sub-cutaneous route. The compound was dosed in a therapeutic manner, after 3 intradermal injections of IL-23 and upon initiation of moderate ear swelling. The degree of swelling was measured using calipers.

Consider `COc1ccc(C(=O)O)c(N2Cc3c(Cl)ccc(Nc4c(N[C@@H](c5cc(C)c(C)o5)C(C)(C)C)c(=O)c4=O)c3C2=O)c1` [Compound 1.023, 2-[4-chloro-7-[[2-[[(1R)-1-(4,5-dimethyl-2-furyl)-2,2-dimethyl-propyl]amino]-3,4-dioxo-cyclobuten-1-yl]amino]-1-oxo-isoindolin-2-yl]-4-methoxy-benzoic acid], for which the “IL-23 induced ear swelling” value was “completely inhibit IL-23 induced ear swelling”.
